In patent US20240050428A1 (Cullgen (Shanghai), Inc., priority 2020, published 2024):
Like-named read-outs stand apart in the source and are kept apart here.

Legend:
MV4;11 cells = assay: Cell viability assay (CellTiter-Glo) in MV4;11 cells, alone or with gilteritinib; type: cell-based; conditions: MV4;11 cells, three days, CellTiter-Glo, read-out: MV4
MOLM-13 cells = assay: Cell viability assay (CellTiter-Glo) in MOLM-13 cells, alone or with gilteritinib; type: cell-based; conditions: MOLM-13 cells, three days, CellTiter-Glo
[1] = Homo sapiens, MV4-11, 72 h, compound alone (without gilteritinib), 11 IC50
[2] = Homo sapiens, MV4-11, 72 h, with gilteritinib 10 nM, 11 IC50 gilteritinib
[3] = Homo sapiens, MOLM-13, 72 h, compound alone (without gilteritinib), read-out: MOLM-13 IC50
[4] = Homo sapiens, MOLM-13, 72 h, with gilteritinib 20 nM, read-out: MOLM-13 IC50 gilteritinib
[5] = Homo sapiens, MV4-11, 72 h, compound with gilteritinib 10 nM, 11 IC50 gilteritinib
[6] = Homo sapiens, MOLM-13, 72 h, compound with gilteritinib 20 nM, read-out: MOLM-13 IC50 gilteritinib

O=C1CCC(N2C(=O)c3ccc(NCC4CC(n5cc(-c6cnc7cccc(F)c7n6)cn5)C4)cc3C2=O)C(=O)N1 (stereo not shown) [GS-394, 2-(2,6-Dioxopiperidin-3-yl)-5-(((3-(4-(8-fluoroquinoxalin-2-yl)-1H-pyrazol-1-yl)cyclobutyl)methyl)amino)isoindoline-1,3-dione]
IC50 (MV4;11 cells; [1]): 100 to 1000 nM | IC50 (MV4;11 cells; [2]): 10 to 100 nM | IC50 (MOLM-13 cells; [3]): > 1000 nM | IC50 (MOLM-13 cells; [4]): 10 to 100 nM

CN1C[C@H]2C[C@@H]1CN2c1ccc2ncc(-c3cnn(C4CC(CCCNc5ccc6c(c5)C(=O)N(C5CCC(=O)NC5=O)C6=O)C4)c3)nc2c1 (stereo partly drawn) [GS-395, 2-(2,6-Dioxopiperidin-3-yl)-5-((3-(3-(4-(7-((1R,4R)-5-methyl-2,5-diazabicyclo[2.2.1]heptan-2-yl)quinoxalin-2-yl)-1H-pyrazol-1-yl)cyclobutyl)propyl)amino)isoindoline-1,3-dione]
IC50 (MV4;11 cells; [1]): > 1000 nM | IC50 (MV4;11 cells; [2]): 10 to 100 nM | IC50 (MOLM-13 cells; [3]): > 1000 nM | IC50 (MOLM-13 cells; [4]): 10 to 100 nM

O=C1CCC(N2C(=O)c3ccc(NCCC[C@H]4C[C@H](n5cc(-c6cnc7cc(N8CCOCC8)ccc7n6)cn5)C4)cc3C2=O)C(=O)N1 (stereo partly drawn) [GS-396, 2-(2,6-Dioxopiperidin-3-yl)-5-((3-(trans-3-(4-(6-morpholinoquinoxalin-2-yl)-1H-pyrazol-1-yl)cyclobutyl)propyl)amino)isoindoline-1,3-dione]
IC50 (MV4;11 cells; [1]): 10 to 100 nM | IC50 (MV4;11 cells; [2]): < 10 nM | IC50 (MOLM-13 cells; [3]): 10 to 100 nM | IC50 (MOLM-13 cells; [4]): < 10 nM

CN1CCN(c2ccc3nc(-c4cnn([C@H]5C[C@H](CCCNc6ccc7c(c6)C(=O)N(C6CCC(=O)NC6=O)C7=O)C5)c4)cnc3c2)CC1 (stereo partly drawn) [GS-397, 2-(2,6-Dioxopiperidin-3-yl)-5-((3-(trans-3-(4-(6-(4-methylpiperazin-1-yl)quinoxalin-2-yl)-1H-pyrazol-1-yl)cyclobutyl)propyl)amino)isoindoline-1,3-dione]
IC50 (MV4;11 cells; [1]): 10 to 100 nM | IC50 (MV4;11 cells; [2]): < 10 nM | IC50 (MOLM-13 cells; [3]): 10 to 100 nM | IC50 (MOLM-13 cells; [4]): < 10 nM

CN1CCN(c2cccc3ncc(-c4cnn(C5CC(CNc6ccc7c(c6)C(=O)N(C6CCC(=O)NC6=O)C7=O)C5)c4)nc23)CC1 (stereo not shown) [GS-398, 2-(2,6-Dioxopiperidin-3-yl)-5-(((3-(4-(8-(4-methylpiperazin-1-yl)quinoxalin-2-yl)-1H-pyrazol-1-yl)cyclobutyl)methyl)amino)isoindoline-1,3-dione]
IC50 (MV4;11 cells; [1]): > 1000 nM | IC50 (MV4;11 cells; [2]): > 1000 nM | IC50 (MOLM-13 cells; [3]): > 1000 nM | IC50 (MOLM-13 cells; [4]): > 1000 nM

Cc1nn([C@H]2C[C@H](CCCNc3ccc4c(c3)C(=O)N(C3CCC(=O)NC3=O)C4=O)C2)cc1-c1cnc2ccc(N3CCOCC3)cc2n1 (stereo partly shown) [GS-399]
IC50 (MV4;11 cells; [1]): < 10 nM | IC50 (MV4;11 cells; [2]): < 10 nM | IC50 (MOLM-13 cells; [3]): < 10 nM | IC50 (MOLM-13 cells; [4]): < 10 nM

O=C1CCC(N2C(=O)c3ccc(NCCC[C@H]4C[C@H](n5cc(-c6cnc7ccccc7n6)c(C(F)(F)F)n5)C4)cc3C2=O)C(=O)N1 (stereo partly drawn) [GS-400, 2-(2,6-Dioxopiperidin-3-yl)-5-((3-(trans-3-(4-(quinoxalin-2-yl)-3-(trifluoromethyl)-1H-pyrazol-1-yl)cyclobutyl)propyl)amino)isoindoline-1,3-dione]
IC50 (MV4;11 cells; [1]): 10 to 100 nM | IC50 (MV4;11 cells; [2]): 10 to 100 nM | IC50 (MOLM-13 cells; [3]): 100 to 1000 nM | IC50 (MOLM-13 cells; [4]): 10 to 100 nM

O=C1CCC(N2C(=O)c3ccc(NCCC[C@H]4C[C@H](n5cc(-c6cnc7cc(N8CCNCC8)ccc7n6)cn5)C4)cc3C2=O)C(=O)N1 (stereo partly drawn) [GS-401, 2-(2,6-Dioxopiperidin-3-yl)-5-((3-(trans-3-(4-(6-(piperazin-1-yl)quinoxalin-2-yl)-1H-pyrazol-1-yl)cyclobutyl)propyl)amino)isoindoline-1,3-dione]
IC50 (MV4;11 cells; [1]): 10 to 100 nM | IC50 (MV4;11 cells; [2]): < 10 nM | IC50 (MOLM-13 cells; [3]): 10 to 100 nM | IC50 (MOLM-13 cells; [4]): < 10 nM

O=C1CCC(N2C(=O)c3ccc(NCCC[C@H]4C[C@@H](n5cc(-c6cnc7cc(N8CCOCC8)ccc7n6)cn5)C4)cc3C2=O)C(=O)N1 (stereo partly drawn) [GS-402, 2-(2,6-Dioxopiperidin-3-yl)-5-((3-(cis-3-(4-(6-morpholinoquinoxalin-2-yl)-1H-pyrazol-1-yl)cyclobutyl)propyl)amino)isoindoline-1,3-dione]
IC50 (MV4;11 cells; [1]): 100 to 1000 nM | IC50 (MV4;11 cells; [2]): 10 to 100 nM | IC50 (MOLM-13 cells; [3]): > 1000 nM | IC50 (MOLM-13 cells; [4]): 10 to 100 nM

O=C1CCC(N2C(=O)c3ccc(NCCC[C@H]4C[C@H](n5cc(-c6cnc7c(N8CCOCC8)cccc7n6)cn5)C4)cc3C2=O)C(=O)N1 (stereo partly drawn) [GS-403, 2-(2,6-Dioxopiperidin-3-yl)-5-((3-(trans-3-(4-(5-morpholinoquinoxalin-2-yl)-1H-pyrazol-1-yl)cyclobutyl)propyl)amino)isoindoline-1,3-dione]
IC50 (MV4;11 cells; [1]): 100 to 1000 nM | IC50 (MV4;11 cells; [2]): 10 to 100 nM | IC50 (MOLM-13 cells; [3]): 100 to 1000 nM | IC50 (MOLM-13 cells; [4]): 10 to 100 nM

CN1CCN(c2cccc3nc(-c4cnn([C@H]5C[C@H](CCCNc6ccc7c(c6)C(=O)N(C6CCC(=O)NC6=O)C7=O)C5)c4)cnc23)CC1 (stereo partly drawn) [GS-404, 2-(2,6-Dioxopiperidin-3-yl)-5-((3-(trans-3-(4-(5-(4-methylpiperazin-1-yl)quinoxalin-2-yl)-1H-pyrazol-1-yl)cyclobutyl)propyl)amino)isoindoline-1,3-dione]
IC50 (MV4;11 cells; [1]): 10 to 100 nM | IC50 (MV4;11 cells; [2]): < 10 nM | IC50 (MOLM-13 cells; [3]): 100 to 1000 nM | IC50 (MOLM-13 cells; [4]): < 10 nM

O=C1CCC(N2C(=O)c3ccc(NCCC[C@H]4C[C@H](n5cc(-c6cnc7c(N8CCNCC8)cccc7n6)cn5)C4)cc3C2=O)C(=O)N1 (stereo partly drawn) [GS-405, 2-(2,6-Dioxopiperidin-3-yl)-5-((3-(trans-3-(4-(5-(piperazin-1-yl)quinoxalin-2-yl)-1H-pyrazol-1-yl)cyclobutyl)propyl)amino)isoindoline-1,3-dione]
IC50 (MV4;11 cells; [1]): 10 to 100 nM | IC50 (MV4;11 cells; [2]): 10 to 100 nM | IC50 (MOLM-13 cells; [3]): 100 to 1000 nM | IC50 (MOLM-13 cells; [4]): < 10 nM

Cc1nn([C@H]2C[C@H](CCCNc3ccc4c(c3)C(=O)N(C3CCC(=O)NC3=O)C4=O)C2)cc1-c1cnc2ccc(N3C[C@H]4C[C@@H]3CN4C)cc2n1 (stereo partly drawn) [GS-407, 2-(2,6-dioxopiperidin-3-yl)-5-((3-(trans-3-(3-methyl-4-(7-((1R,4R)-5-methyl-2,5-diazabicyclo[2.2.1]heptan-2-yl)quinoxalin-2-yl)-1H-pyrazol-1-yl)cyclobutyl)propyl)amino)isoindoline-1,3-dione]
IC50 (MV4;11 cells; [1]): > 1000 nM | IC50 (MV4;11 cells; [2]): 100 to 1000 nM | IC50 (MOLM-13 cells; [3]): > 1000 nM | IC50 (MOLM-13 cells; [4]): 10 to 100 nM

C[C@@H]1CN(c2ccc3ncc(-c4cnn([C@H]5C[C@H](CCCNc6ccc7c(c6)C(=O)N(C6CCC(=O)NC6=O)C7=O)C5)c4)nc3c2)C[C@H](C)N1C (stereo partly drawn) [GS-408, 2-(2,6-dioxopiperidin-3-yl)-5-((3-(trans-3-(4-(7-((3S,5R)-3,4,5-trimethylpiperazin-1-yl)quinoxalin-2-yl)-1H-pyrazol-1-yl)cyclobutyl)propyl)amino)isoindoline-1,3-dione]
IC50 (MV4;11 cells; [1]): 100 to 1000 nM | IC50 (MV4;11 cells; [2]): 10 to 100 nM | IC50 (MOLM-13 cells; [3]): 100 to 1000 nM | IC50 (MOLM-13 cells; [4]): 10 to 100 nM

CN1C2CCC1CN(c1ccc3ncc(-c4cnn([C@H]5C[C@H](CCCNc6ccc7c(c6)C(=O)N(C6CCC(=O)NC6=O)C7=O)C5)c4)nc3c1)C2 (stereo partly drawn) [GS-409, 2-(2,6-dioxopiperidin-3-yl)-5-((3-(trans-3-(4-(7-(8-methyl-3,8-diazabicyclo[3.2.1]octan-3-yl)quinoxalin-2-yl)-1H-pyrazol-1-yl)cyclobutyl)propyl)amino)isoindoline-1,3-dione]
IC50 (MV4;11 cells; [1]): 10 to 100 nM | IC50 (MV4;11 cells; [2]): 10 to 100 nM | IC50 (MOLM-13 cells; [3]): 10 to 100 nM | IC50 (MOLM-13 cells; [4]): < 10 nM

O=C1CCC(N2C(=O)c3ccc(NCCC[C@H]4C[C@H](n5cc(-c6cnc7ccc(N8C[C@H]9C[C@@H]8CO9)cc7n6)cn5)C4)cc3C2=O)C(=O)N1 (stereo partly drawn) [GS-410, 5-((3-(trans-3-(4-(7-((1R,4R)-2-oxa-5-azabicyclo[2.2.1]heptan-5-yl)quinoxalin-2-yl)-1H-pyrazol-1-yl)cyclobutyl)propyl)amino)-2-(2,6-dioxopiperidin-3-yl)isoindoline-1,3-dione]
IC50 (MV4;11 cells; [1]): 10 to 100 nM | IC50 (MV4;11 cells; [2]): < 10 nM | IC50 (MOLM-13 cells; [3]): 10 to 100 nM | IC50 (MOLM-13 cells; [4]): < 10 nM

CN1C[C@H]2C[C@@H]1CN2c1ccc2ncc(-c3cnn([C@H]4C[C@H](CCCNc5ccc6c(c5)C(=O)N(C5CCC(=O)NC5=O)C6=O)C4)c3)nc2c1 (stereo partly drawn) [GS-411, 2-(2,6-dioxopiperidin-3-yl)-5-((3-(trans-3-(4-(7-((1R,4R)-5-methyl-2,5-diazabicyclo[2.2.1]heptan-2-yl)quinoxalin-2-yl)-1H-pyrazol-1-yl)cyclobutyl)propyl)amino)isoindoline-1,3-dione]
IC50 (MV4;11 cells; [1]): 10 to 100 nM | IC50 (MV4;11 cells; [2]): < 10 nM | IC50 (MOLM-13 cells; [3]): > 1000 nM | IC50 (MOLM-13 cells; [4]): < 10 nM

CN1CCN(c2ccc3nc(-c4cnn([C@H]5C[C@@H](CCCNc6ccc7c(c6)C(=O)N(C6CCC(=O)NC6=O)C7=O)C5)c4)cnc3c2)CC1 (stereo partly drawn) [GS-412, 2-(2,6-dioxopiperidin-3-yl)-5-((3-(cis-3-(4-(6-(4-methylpiperazin-1-yl)quinoxalin-2-yl)-1H-pyrazol-1-yl)cyclobutyl)propyl)amino)isoindoline-1,3-dione]
IC50 (MV4;11 cells; [1]): 100 to 1000 nM | IC50 (MV4;11 cells; [5]): 10 to 100 nM | IC50 (MOLM-13 cells; [3]): 100 to 1000 nM | IC50 (MOLM-13 cells; [6]): 10 to 100 nM

CN1CCN(c2cccc(-c3cnn([C@H]4C[C@H](CCCNc5ccc6c(c5)C(=O)N(C5CCC(=O)NC5=O)C6=O)C4)c3)n2)CC1 (stereo partly drawn) [GS-413, 2-(2,6-dioxopiperidin-3-yl)-5-((3-(trans-3-(4-(6-(4-methylpiperazin-1-yl)pyridin-2-yl)-1H-pyrazol-1-yl)cyclobutyl)propyl)amino)isoindoline-1,3-dione]
IC50 (MV4;11 cells; [5]): 100 to 1000 nM | IC50 (MV4;11 cells; compound alone (without gilteritinib), 11 IC50): 100 to 1000 nM | IC50 (MOLM-13 cells; [6]): 10 to 100 nM | IC50 (MOLM-13 cells; compound alone (without gilteritinib), read-out: MOLM-13 IC50): > 1000 nM
